Test results taken from patent publication US10226471B2, “Modified-release dosage forms of 5-HT2C agonists useful for weight management” (Arena Pharmaceuticals, Inc., priority 2010, dated 2019).
Where two headings read alike, the source gives them in different places.

Assays:
[1] = Solubility of salts in water (UPLC or gravimetry); assay type: physicochemical
Description: Acquity ultra performance liquid chromatography (UPLC) from Waters was used for solubility and stoichiometry determination. […] UPLC was equipped with Acquity PDA detector. UPLC mobile phase solvent A was 0.1% TFA in DI-water, solvent B was 0.1% TFA in acetonitrile.
Column temperature was 40±5° C. Acquity UPLC® HSS T3 1.8 μm, 2.1×50 mm column was used.
A known amount of sample was dissolved in water and analyzed by UPLC.

[2] = Dynamic moisture-sorption (DMS); assay type: physicochemical; conditions: for hygroscopicity by DMS: isotherm 25° C.; for DMS weight gain at 90% RH: out to and including the 90% RH hold at 25° C.
Description: Dynamic moisture-sorption (DMS) studies were conducted using a dynamic moisture-sorption analyzer, VTI Corporation, SGA-100, equipment #0228. Samples were prepared for DMS analysis by placing 5 mg to 20 mg of a sample in a tared sample holder. The sample was placed on the hang-down wire of the VTI balance. A drying step was run, typically at 40° C. and 0.5-1% RH for 1-2 h. The isotherm temperature is 25° C. Defined % RH holds typically ranged from 10% RH to 90% RH or 95% RH, with intervals of 10 to 20% RH. A % weight change smaller than 0.010% over a specified number of minutes (typically 10-20), or up to 2 h, whichever occurs first, is required before continuing to the next % RH hold. The water content of the sample equilibrated as described above was determined at each % RH hold.

[3] = Biopharmaceutics Classification System classification; assay type: physicochemical
From the text: An immediate-release, film-coated 10-mg tablet was developed for the phase 3 clinical trials and commercialization of Compound 1 (Example 5).

[4] = 26-day body weight study, oral gavage versus osmotic minipump; assay type: in vivo, male Sprague Dawley rats
Description: 30 male Sprague Dawley rats weighing 275-320 g were singly housed and maintained on a 12 h:12 h light-dark cycle (lights on at 23:00 h). Food and water were available ad libitum at all times except during the first day after pump implantation (see below). All rats were habituated to injection and handling procedures for one week prior to study onset.
For the purposes of dose calculation each rat was assumed to weigh 320 g at the start of the study. Rats receiving Compound 1 hydrochloride salt PO were given a fixed daily dose of 7.68 mg, whereas rats in the pump group received a total fixed daily dose of 4.84 mg (for calculations see Example 2.1).
Osmotic minipumps (Alzet® model 2ML4, Durect Corp, CA) were filled with either vehicle (0.9% saline, n=20), or Compound 1 hydrochloride salt solutions and submerged overnight in a 0.9% saline solution to reach equilibrium. […] All subjects were then implanted with the minipumps. Briefly, under isoflourane anaesthesia the nape of the neck was shaved, a mid-scapular incision was made and a subcutaneous pocket was created for the minipump. A minipump was then inserted into the pocket and the incision was closed using surgical staples. Rats were then returned to homecage for recovery. Rats in VEH and PO groups received pumps primed with vehicle; whereas rats in the PUMP group received Compound 1 hydrochloride salt-filled pumps. Because steady state levels of Compound 1 in vivo in the PUMP group were not predicted to be reached until at least 24 h post-implantation, food was removed from all rats for approximately one day after surgery. At 10:30 h the next day (Day 1) and for all subsequent days, food and body weight was measured for all subjects, and all subjects were administered either saline (for VEH and PUMP groups), or Compound 1 hydrochloride salt (PO group) via oral gavage. Food intake and body weight were measured for a total of 26 days.

[5] = chronic twice-daily oral administration, high fat diet, 4-week study; cited from earlier work
[6] = Deliquescence relative humidity (DRH) by water activity meter; assay type: physicochemical; conditions: saturated aqueous solution with excess solid, 25° C.
[7] = Appearance on exposure to light; assay type: physicochemical; conditions: solid removed from the slurry
[8] = water, thermodynamic from solid, by UPLC, read-out: solubility in water

Compound: C[C@H]1CNCCc2ccc(Cl)cc21.C[C@H]1CNCCc2ccc(Cl)cc21.O=S(=O)(O)c1cccc2c(S(=O)(=O)O)cccc12 [Compound 1 heminapadisilate salt]
- solubility in water ([1]; by UPLC): 2370 µg/mL

Compound: C[C@H]1CNCCc2ccc(Cl)cc21.C[C@H]1CNCCc2ccc(Cl)cc21.O.O=C(O)c1cc2ccccc2c(Cc2c(O)c(C(=O)O)cc3ccccc23)c1O [Compound 1 hemipamoate salt hydrate]
- solubility in water ([1]; by UPLC): 24 µg/mL
- hygroscopicity by DMS [2]: slightly hygroscopic
- DMS weight gain at 90% RH ([2]; listed as Compound 1 Hemipamoate Salt Hydrate, Form I, hydrate): FIG. 41: ~1.472% weight gain at about 90% RH
- DMS weight gain at 90% RH ([2]; listed as Compound 1 hemipamoate salt hydrate, Form I, hydrate): about 1.472%

Compound: C[C@H]1CNCCc2ccc(Cl)cc21.C[C@H]1CNCCc2ccc(Cl)cc21.Cl.Cl.O
- solubility ([1]; pH range of 1 to 7): exceeds 400 mg/mL
- Biopharmaceutics Classification System solubility class [3]: highly soluble

Compound: C[C@H]1CNCCc2ccc(Cl)cc21.Cl [Compound 1 hydrochloride salt]
- body weight gain, PUMP group compared to PO group ([4]; 26 days, p=0.0501, slopes differ p<0.01): lower weight gain in the PUMP group than in the PO group
- body weight gain over 26 days compared to saline ([4]; oral gavage once daily, 24 mg/kg/day (fixed 7.68 mg)): significantly decreased
- body weight gain over 26 days compared to saline ([4]; osmotic minipump, 15.1 mg/kg/day (fixed 4.84 mg)): significantly decreased
- food intake and body weight gain [5]: dose-dependent reductions in food intake and body weight gain

Compound: C[C@H]1CNCCc2ccc(Cl)cc21.I [Compound 1 hydroiodide salt]
- solubility ([1]; water, thermodynamic from solid, 27° C., by gravimetry (confirmed by UPLC), read-out: solubility in water): 5500 µg/mL
- hygroscopicity by DMS ([2]; Form I, hydroiodide salt): FIG. 7: non-hygroscopic
- hygroscopicity by DMS ([2]; hydroiodide salt): non-hygroscopic
- DRH (deliquescence relative humidity) [6]: 99 % RH
- colour change on exposure to light [7]: did yellow noticeably within hours when exposed to light

Compound: C[C@H]1CNCCc2ccc(Cl)cc21.O=C(O)/C=C\C(=O)O [Compound 1 maleate salt]
- solubility [1, 8]: 33000 µg/mL
- hygroscopicity by DMS [2]: not hygroscopic
- DMS weight gain at 90% RH ([2]; maleate salt): 0.15%
- DRH (deliquescence relative humidity) [6]: 99 % RH

Compound: C[C@H]1CNCCc2ccc(Cl)cc21.O=C(O)/C=C/C(=O)O [Compound 1 fumarate salt]
- solubility [1, 8]: 4800 µg/mL
- hygroscopicity by DMS ([2]; listed as Compound 1 Fumarate Salt, Form I, fumarate salt): FIG. 13: non-hygroscopic up to 90% RH
- hygroscopicity by DMS ([2]; listed as Compound 1 fumarate salt, Form I, fumarate salt): non-hygroscopic
- DRH (deliquescence relative humidity) [6]: 99 % RH
